US10815247B2, “Functionalized NANOLUC inhibitors” (PROMEGA CORPORATION, priority 2016, dated 2020)
Where two headings read alike, the source gives them in different places.

Target: NanoLuc (Oplophorus gracilirostris, UniProt Q9GV45, A31E/A60N/A81I/F95D/I117V/K70R/L54V/L99Q/M102K/N193R/P142E/Q151K/Q38R/Q45L/V71I/Y165I)
Test: Inhibitor IC50 determination
Type: biochemical
Experimental: The following example provides the IC50 values for the compounds disclosed herein. NANOLUC® enzyme was diluted to 0.4 ng/ml in CO2 independent media+10% FBS to make the detection reagent. A 3× dilution series of each inhibitor was then made in the detection reagent. A “no inhibitor” control was also made for each sample. 50 ul of each inhibitor dilution was mixed with 50 ul of NanoGlo® buffer containing 20 μM furimazine (final furimazine concentration is 10 μM, which is at Km.), and luminescence was measured. Each sample was normalized to the “no inhibitor” control. The IC50 values were then determined using GraphPad Prism (log[inhibitor] vs. normalized response).

[1] = 0.4 ng/ml NANOLUC in CO2 independent media+10% FBS, final furimazine 10 μM, no pre-incubation noted, read-out: IC50

Sequence of NanoLuc (Q9GV45 28-196 with tags or gaps with the stated changes limits assumed): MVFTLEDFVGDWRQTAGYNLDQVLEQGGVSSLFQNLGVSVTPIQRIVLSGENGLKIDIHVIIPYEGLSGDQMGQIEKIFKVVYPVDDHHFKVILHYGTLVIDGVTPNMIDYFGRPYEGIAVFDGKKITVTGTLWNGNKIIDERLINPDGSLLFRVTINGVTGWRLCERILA

## N-(trans-4-((6-(3′,6′-diamino-3-oxo-3H-spiro[isobenzofuran-1,9′-xanthene]-5,6-carboxamido)hexyl)carbamoyl)cyclohexyl)-1-(2-(ethyl(3-ethylphenyl)amino)-2-oxoethyl)-1H-indole-2-carboxamide [JRW-0859]
[1]
  IC50: 2 nM

## CCN(C(=O)Cn1c(C(=O)NC2CCC(C(=O)NCCCCCCCCNC(=O)CCC3=[N+]4C(=Cc5c(C)cc(C)n5[B-]4(F)F)C=C3)CC2)cc2sccc21)c1cccc(C)c1 (stereo not drawn) [JRW-0889, N-(trans-4-((8-(3-(5,5-difluoro-7,9-dimethyl-5H-5λ4,6λ4-dipyrrolo[1,2-c:2′,1′-f][1,3,2]diazaborinin-3-yl)propanamido)octyl)carbamoyl)cyclohexyl)-4-(2-(ethyl(m-tolyl)amino)-2-oxoethyl)-4H-thieno[3,2-b]pyrrole-5-carboxamide]
[1]
  IC50: 280 nM

## CCN(C(=O)Cn1c(C(=O)N[C@H]2CC[C@H](C(=O)NCCCCCCNC(=O)c3ccc4c(c3)C3(OC4=O)c4ccc(N)cc4Oc4cc(N)ccc43)CC2)cc2sccc21)c1cccc(C)c1 [JRW-0863]
[1]
  IC50: 36 nM

## CCN(C(=O)Cn1c(C(=O)N[C@H]2CC[C@H](C(=O)NCCCCCCCC(=O)Oc3ccc(F)cc3)CC2)cc2sccc21)c1cccc(C)c1 [JRW-0831]
  IC50: 320 nM

## CCN(C(=O)Cn1c(C(=O)N[C@H]2CC[C@H](C(=O)NCCCCCCNC(=O)c3ccc4c(c3)C(=O)OC43c4ccc(O)cc4Oc4cc(O)ccc43)CC2)cc2sccc21)c1cccc(C)c1 [JRW-0200, N-(trans-4-((6-(3′,6′-dihydroxy-3-oxo-3H-spiro[isobenzofuran-1,9′-xanthene]-5-carboxamido)hexyl)carbamoyl)cyclohexyl)-4-(2-(ethyl(m-tolyl)amino)-2-oxoethyl)-4H-thieno[3,2-b]pyrrole-5-carboxamide]
  IC50: 49 nM

## N1-(2-(5,5-difluoro-1,3-dimethyl-5H-5λ4,6λ4-dipyrrolo[1,2-c:2′,1′-f][1,3,2]diazaborinin-10-yl)ethyl)-N4-(1-(trans-4-(1-(2-(ethyl(3-ethylphenyl)amino)-2-oxoethyl)-1H-indole-2-carboxamido)cyclohexyl)-1,10-dioxo-13,16-dioxa-2,9-diazaoctadecan-18-yl)succinamide [JRW-1082]
[1]
  IC50: 3.3 nM

## CCc1cccc(N(CC)C(=O)Cn2c(C(=O)N[C@H]3CC[C@H](C(=O)NCCCCCCCC(=O)Oc4ccccc4)CC3)cc3ccccc32)c1 [JRW-0605, phenyl 8-(trans-4-(1-(2-(ethyl(3-ethylphenyl)amino)-2-oxoethyl)-1H-indole-2-carboxamido)cyclohexane-1-carboxamido)octanoate]
  IC50: 0.12 nM

## CCN(C(=O)Cn1c(C(=O)N[C@H]2CC[C@H](C(=O)NCCCCCCCC(=O)ON3C(=O)CC(S(=O)(=O)O)C3=O)CC2)cc2sccc21)c1cccc(C)c1 (stereo partly drawn) [JRW-0830, sodium 1-((8-(trans-4-(4-(2-(ethyl(m-tolyl)amino)-2-oxoethyl)-4H-thieno[3,2-b]pyrrole-5-carboxamido)cyclohexane-1-carboxamido)octanoyl)oxy)-2,5-dioxopyrrolidine-3-sulfonate]
  IC50: 4.2 nM

## CCc1cccc(N(CC)C(=O)Cn2c(C(=O)N[C@H]3CC[C@H](C(=O)NCCCCCCI)CC3)cc3ccccc32)c1 [JRW-0622, 1-(2-(ethyl(3-ethylphenyl)amino)-2-oxoethyl)-N-(trans-4-((6-iodohexyl)carbamoyl)cyclohexyl)-1H-indole-2-carboxamide]
  IC50: 0.14 nM

## CCN(C(=O)Cn1c(C(=O)N[C@H]2CC[C@H](C(=O)NCCCCCC(=O)NCCOCCOCCOCCOCCC(=O)ON3C(=O)CCC3=O)CC2)cc2sccc21)c1cccc(C)c1 [JRW-0533]
  IC50: 92 nM

## CCc1cccc(N(CC)C(=O)Cn2c(C(=O)N[C@H]3CC[C@H](C(=O)NCCCCCCNC(=O)CCc4ccc5n4[B-](F)(F)[N+]4=C(C)C=C(C)C4=C5)CC3)cc3ccccc32)c1 [JRW-0827, N-(trans-4-((6-(3-(5,5-difluoro-7,9-dimethyl-5H-514,614-dipyrrolo[1,2-c:2′,1′-f][1,3,2]diazaborinin-3-yl)propanamido)hexyl)carbamoyl)cyclohexyl)-1-(2-(ethyl(3-ethylphenyl)amino)-2-oxoethyl)-1H-indole-2-carboxamide]
  IC50: 2.7 nM

## CCc1cccc(N(CC)C(=O)Cn2c(C(=O)N[C@H]3CC[C@H](C(=O)NCCCCCCCCNC(=O)CCOCCOCCNC(=O)c4ccc5c(c4)C4(OC5=O)c5ccc(N(C)C)cc5Oc5cc(N(C)C)ccc54)CC3)cc3ccccc32)c1 [JRW-0920, N-(trans-4-((1-(3′,6′-bis(dimethylamino)-3-oxo-3H-spiro[isobenzofuran-1,9′-xanthen]-6-yl)-1,11-dioxo-5,8-dioxa-2,12-diazaicosan-20-yl)carbamoyl)cyclohexyl)-1-(2-(ethyl(3-ethylphenyl)amino)-2-oxoethyl)-1H-indole-2-carboxamide]
  IC50: 1.7 nM

## CCN(C(=O)Cn1c(C(=O)N[C@H]2CC[C@H](C(=O)NCCCCCC(=O)NCCOCCOCCC(=O)ON3C(=O)CCC3=O)CC2)cc2sccc21)c1cccc(C)c1 [JRW-0520, 2,5-dioxopyrrolidin-1-yl 1-(trans-4-(4-(2-(ethyl(m-tolyl)amino)-2-oxoethyl)-4H-thieno[3,2-b]pyrrole-5-carboxamido)cyclohexyl)-1,8-dioxo-12,15-dioxa-2,9-diazaoctadecan-18-oate]
  IC50: 94 nM

## CCN(C(=O)Cn1c(C(=O)N[C@H]2CC[C@H](C(=O)NCCCCCCCC(=O)Oc3c(F)c(F)cc(F)c3F)CC2)cc2sccc21)c1cccc(C)c1 [JRW-0847]
  IC50: 0.3 nM

## CCN(C(=O)Cn1c(C(=O)N[C@H]2CC[C@H](C(=O)NCCCCCCCCNC(=O)c3ccc4c(c3)C(=O)OC43c4ccc(O)cc4Oc4cc(O)ccc43)CC2)cc2sccc21)c1cccc(C)c1 [JRW-0883]
  IC50: 5.4 nM

## N-(trans-4-((8-(6-((Z)-2-((E)-3-(1,1-dimethyl-1,4,5,6-tetrahydro-3λ4-pyrrolo[3,2,1-ij]quinolin-2-yl)allylidene)-1-methyl-1,2,5,6-tetrahydro-4H-pyrrolo[3,2,1-ij]quinolin-1-yl)hexanamido)octyl)carbamoyl)cyclohexyl)-1-(2-(ethyl(3-ethylphenyl)amino)-2-oxoethyl)-1H-indole-2-carboxamide [JRW-0958]
[1]
  IC50: 16 nM

## CCN(C(=O)Cn1c(C(=O)N[C@H]2CC[C@H](C(=O)OC)CC2)cc2sccc21)c1cccc(CBr)c1 [JRW-0466, methyl trans-4-(4-(2-((3-(bromomethyl)phenyl)(ethyl)amino)-2-oxoethyl)-4H-thieno[3,2-b]pyrrole-5-carboxamido)cyclohexane-1-carboxylate]
  IC50: 2.1 nM

## CCc1cccc(N(CC)C(=O)Cn2c(C(=O)N[C@H]3CC[C@H](C(=O)NCCCCCCCC(=O)OC)CC3)cc3ccccc32)c1 [JRW-0597, methyl 8-(trans-4-(1-(2-(ethyl(3-ethylphenyl)amino)-2-oxoethyl)-1H-indole-2-carboxamido)cyclohexane-1-carboxamido)octanoate]
  IC50: 0.16 nM

## CCN(C(=O)Cn1c(C(=O)N[C@H]2CC[C@H](C(=O)NCCCCCCNC(=O)c3ccc4c(c3)C3(OC4=O)c4ccc(N(C)C)cc4Oc4cc(N(C)C)ccc43)CC2)cc2sccc21)c1cccc(C)c1 [JRW-0824]
  IC50: 180 nM

## CCc1cccc(N(CC)C(=O)Cn2c(C(=O)N[C@H]3CC[C@H](C(=O)NCCCCCCNC(=O)c4ccc5c(c4)C(=O)OC54c5ccc(O)cc5Oc5cc(O)ccc54)CC3)cc3ccccc32)c1 [JRW-0818, N-(trans-4-((6-(3′,6′-dihydroxy-3-oxo-3H-spiro[isobenzofuran-1,9′-xanthene]-5-carboxamido)hexyl)carbamoyl)cyclohexyl)-1-(2-(ethyl(3-ethylphenyl)amino)-2-oxoethyl)-1H-indole-2-carboxamide]
  IC50: 1.2 nM

## CCc1cccc(N(CC)C(=O)Cn2c(C(=O)N[C@H]3CC[C@H](C(=O)NCCCCCCBr)CC3)cc3ccccc32)c1 [JRW-0626, N-(trans-4-((6-bromohexyl)carbamoyl)cyclohexyl)-1-(2-(ethyl(3-ethylphenyl)amino)-2-oxoethyl)-1H-indole-2-carboxamide]
  IC50: 0.2 nM

## N-(trans-4-((1-(3′,6′-dihydroxy-3-oxo-3H-spiro[isobenzofuran-1,9′-xanthen]-5,6-yl)-1,11-dioxo-5,8-dioxa-2,12-diazaicosan-20-yl)carbamoyl)cyclohexyl)-1-(2-(ethyl(3-ethylphenyl)amino)-2-oxoethyl)-1H-indole-2-carboxamide [JRW-0921]
[1]
  IC50: 1.1 nM

## CCc1cccc(N(CC)C(=O)Cn2c(C(=O)N[C@H]3CC[C@H](C(=O)NCCCCCCNC(=O)CCOCCOCCNC(=O)c4ccc5c(c4)C4(OC5=O)c5ccc(N(C)C)cc5Oc5cc(N(C)C)ccc54)CC3)cc3ccccc32)c1 [JRW-0915, N-(trans-4-((1-(3′,6′-bis(dimethylamino)-3-oxo-3H-spiro[isobenzofuran-1,9′-xanthen]-6-yl)-1,11-dioxo-5,8-dioxa-2,12-diazaoctadecan-18-yl)carbamoyl)cyclohexyl)-1-(2-(ethyl(3-ethylphenyl)amino)-2-oxoethyl)-1H-indole-2-carboxamide]
  IC50: 5.2 nM

## CCN(C(=O)Cn1c(C(=O)N[C@H]2CC[C@H](C(=O)NCCCCCNC(=O)CBr)CC2)cc2sccc21)c1cccc(C)c1 [JRW-0870, N-(trans-4-((5-(2-bromoacetamido)pentyl)carbamoyl)cyclohexyl)-4-(2-(ethyl(m-tolyl)amino)-2-oxoethyl)-4H-thieno[3,2-b]pyrrole-5-carboxamide]
  IC50: 42 nM

## CCN(C(=O)Cn1c(C(=O)N[C@H]2CC[C@H](C(=O)NCCCCCNC(=O)CCl)CC2)cc2sccc21)c1cccc(C)c1 [JRW-0844, N-(trans-4-((5-(2-chloroacetamido)pentyl)carbamoyl)cyclohexyl)-4-(2-(ethyl(m-tolyl)amino)-2-oxoethyl)-4H-thieno[3,2-b]pyrrole-5-carboxamide]
  IC50: 41 nM
